Molecules are shown by their SMILES.

This experiment has as its system recombinant rabies virus 1088 strain expressing Gaussia Luciferase (GLuc) (1088/GLuc). Format: cell-based. Conditions: read-out: Anti-rabies activity.

On to `CC(C)CC[C@@H]1[C@H]2CN[C@@]3(C(=O)NC(C)C)[C@@H](C2)CN(Cc2ccc(O)cc2)[C@@H]13` [IB-501], for which the IC50 is less than 5 µM.

As for `CC(C)NC(=O)[C@]12NC[C@H]3C[C@H]1CN(Cc1ccc(O)cc1)[C@H]2[C@@H]3Cc1cccc2ccccc12` [IB-502], the IC50 is less than 5 µM.

With `CC(C)CCN1C[C@@H]2C[C@@H]3CN[C@]2(C(=O)NCc2ccccc2)[C@@H]1[C@@H]3CCC(=O)O` [IB-505], the IC50 was 10 to 30 µM.

Turning to `CC(C)CNC(=O)C12NCC3CC1CN(CCc1ccccc1)C2C3CCC(=O)O` (stereo not drawn) [IB-508], the IC50 lay within 10 to 30 µM.

Take `CC(C)CNC(=O)C12NCC3CC1CN(CC1CCCCC1)C2C3CCC(=O)O` (stereo not drawn) [IB-510]: the IC50 was in the range of 10 to 30 µM.

As to `O=C(O)CCN1CC2CC3CNC2(C(=O)NCc2ccc(O)cc2)C1C3CCc1ccccc1` (stereo not drawn) [IB-515], the IC50 fell in the range of 10 to 30 µM.

In the case of `O=C(O)CCN1CC2CC3CNC2(C(=O)NCc2ccc(O)cc2)C1C3Cc1cccc2ccccc12` (stereo not drawn) [IB-516], the IC50 was in the range of 10 to 30 µM.

In the case of `CC(C)CC1C2CNC3(C(=O)NCCC(N)=O)C(C2)CN(Cc2cccc4ccccc24)C13` (stereo not drawn) [IB-520], the IC50 was less than 5 µM.

As to `NC(=O)CCNC(=O)C12NCC3CC1CN(Cc1cccc4ccccc14)C2C3Cc1ccc(O)cc1` (stereo not drawn) [IB-521], the IC50 lay within 10 to 30 µM.

As to `NC(=O)CCNC(=O)C12NCC3CC1CN(CC1CCCCC1)C2C3Cc1cccc2ccccc12` (stereo not drawn) [IB-522], the IC50 was 10 to 30 µM.

As to `NC(=O)CCNC(=O)C12NCC3CC1CN(Cc1ccc(F)cc1)C2C3Cc1cccc2ccccc12` (stereo not drawn) [IB-525], the IC50 was 10 to 30 µM.

In the case of `CC(C)CCC1C2CNC3(C(=O)NCCc4ccccc4)C(C2)CN(CCO)C13` (stereo not drawn) [IB-531], the IC50 is 10 to 30 µM.

As for `NC(=O)CCNC(=O)C12NCC3CC1CN(Cc1ccccc1)C2C3CCc1ccccc1` (stereo not drawn) [IB-535], the IC50 fell in the range of 10 to 30 µM.

For the molecule `CC(C)CN1CC2CC3CNC2(C(=O)NCCc2ccccc2)C1C3Cc1ccc(O)cc1` (stereo not drawn) [IB-536], the IC50 lay in the range of 10 to 30 µM.

As to `CC(C)CN1CC2CC3CNC2(C(=O)NCCC(N)=O)C1C3CCc1ccccc1` (stereo not drawn) [IB-539], the IC50 lay in the range of 10 to 30 µM.

As to `CC(C)CC1C2CNC3(C(=O)NCCc4ccccc4)C(C2)CN(Cc2ccc(O)cc2)C13` (stereo not drawn) [IB-540], the IC50 was 10 to 30 µM.

Regarding `CC(C)CC1C2CNC3(C(=O)NCc4cccc5ccccc45)C(C2)CN(Cc2ccc(O)cc2)C13` (stereo not drawn) [IB-541], the IC50 is less than 5 µM.

`CC(C)CCC1C2CNC3(C(=O)NCCc4ccccc4)C(C2)CN(Cc2ccc(O)cc2)C13` (stereo not drawn) [IB-544]: the IC50 is 10 to 30 µM.

On to `O=C(NCc1ccc(F)cc1)C12NCC3CC1CN(CCO)C2C3Cc1ccc(O)cc1` (stereo not drawn) [IB-549], for which the IC50 is 10 to 30 µM.

Regarding `CCCCCCNC(=O)C12NCC3CC1CN(CCC(C)C)C2C3CC(C)C` (stereo not drawn) [IB-551], the IC50 is less than 5 µM.

For the molecule `CC(C)CCN1CC2CC3CNC2(C(=O)NCc2ccc(F)cc2)C1C3CC(C)C` (stereo not drawn) [IB-553], the IC50 was less than 5 µM.

In the case of `CCCCCCNC(=O)C12NCC3CC1CN(Cc1ccccc1)C2C3Cc1ccccc1` (stereo not drawn) [IB-562], the IC50 is 10 to 30 µM.

Take `O=C(NCc1ccc(F)cc1)C12NCC3CC1CN(Cc1ccccc1)C2C3CCc1ccccc1` (stereo not drawn) [IB-568]: the IC50 fell in the range of 10 to 30 µM.

For `CC(C)CCNC(=O)C12NCC3CC1CN(Cc1ccc(O)cc1)C2C3Cc1ccccc1` (stereo not drawn) [IB-574], the IC50 was 10 to 30 µM.

Turning to `CC(C)CNC(=O)C12NCC3CC1CN(CCC(=O)O)C2C3Cc1cccc2ccccc12` (stereo not drawn) [IB-575], the IC50 was 10 to 30 µM.

As to `CC(C)CCN1CC2CC3CNC2(C(=O)NCc2ccc(O)cc2)C1C3CCc1ccccc1` (stereo not drawn) [IB-576], the IC50 is 10 to 30 µM.

As to `CC(C)CCN1CC2CC3CNC2(C(=O)NCc2ccc(O)cc2)C1C3Cc1ccccc1` (stereo not drawn) [IB-577], the IC50 was in the range of 10 to 30 µM.

As for `CC(C)CC1C2CNC3(C(=O)NCc4ccc(O)cc4)C(C2)CN(CC2CCCCC2)C13` (stereo not drawn) [IB-581], the IC50 was 10 to 30 µM.

As to `CC(C)CCC1C2CNC3(C(=O)NCc4ccc(O)cc4)C(C2)CN(Cc2ccc(F)cc2)C13` (stereo not drawn) [IB-582], the IC50 fell in the range of 10 to 30 µM.

Consider `O=C(NCc1ccc(O)cc1)C12NCC3CC1CN(Cc1ccc(F)cc1)C2C3Cc1ccccc1` (stereo not drawn) [IB-583], for which the IC50 is 10 to 30 µM.

For the molecule `CC(C)CC1C2CNC3(C(=O)NCc4cccc5ccccc45)C(C2)CN(CCO)C13` (stereo not drawn) [IB-585], the IC50 was in the range of 10 to 30 µM.

Turning to `O=C(NCCO)C12NCC3CC1CN(Cc1cccc4ccccc14)C2C3Cc1ccccc1` (stereo not drawn) [IB-588], the IC50 was less than 5 µM.

As to `O=C(NCCO)[C@]12NC[C@H]3C[C@H]1CN(CCc1ccccc1)[C@H]2[C@@H]3Cc1cccc2ccccc12` [IB-593], the IC50 is 10 to 30 µM.

Consider `O=C(NCCO)[C@]12NC[C@H]3C[C@H]1CN(Cc1ccccc1)[C@H]2[C@@H]3Cc1cccc2ccccc12` [IB-602], for which the IC50 is 10 to 30 µM.

In the case of `O=C(O)CCNC(=O)[C@]12NC[C@H]3C[C@H]1CN(CCO)[C@H]2[C@@H]3Cc1cccc2ccccc12` [IB-610], the IC50 is 10 to 30 µM.

Regarding `CC(C)CCN1C[C@@H]2C[C@@H]3CN[C@]2(C(=O)NCCC(=O)O)[C@@H]1[C@@H]3CC(C)C` [IB-611], the IC50 is 10 to 30 µM.

In the case of `CC(C)CC[C@@H]1[C@H]2CN[C@@]3(C(=O)NCCC(=O)O)[C@@H](C2)CN(CC2CCCCC2)[C@@H]13` [IB-613], the IC50 is 10 to 30 µM.

Consider `O=C(O)CCNC(=O)[C@]12NC[C@H]3C[C@H]1CN(CC1CCCCC1)[C@H]2[C@@H]3Cc1cccc2ccccc12` [IB-614], for which the IC50 is 10 to 30 µM.

Consider `O=C(O)CCNC(=O)[C@]12NC[C@H]3C[C@H]1CN(Cc1ccccc1)[C@H]2[C@@H]3Cc1cccc2ccccc12` [IB-616], for which the IC50 fell in the range of 10 to 30 µM.

Take `O=C(NCc1ccccc1)[C@]12NC[C@H]3C[C@H]1CN(CCO)[C@H]2[C@@H]3CCc1ccccc1` [IB-618]: the IC50 is less than 5 µM.

With `O=C(NCc1ccccc1)[C@]12NC[C@H]3C[C@H]1CN(CCO)[C@H]2[C@@H]3Cc1ccccc1` [IB-619], the IC50 was 10 to 30 µM.

On to `CC(C)CNC(=O)[C@]12NC[C@H]3C[C@H]1CN(CCO)[C@H]2[C@@H]3Cc1cccc2ccccc12` [IB-621], for which the IC50 was less than 5 µM.

As for `CC(C)CNC(=O)[C@]12NC[C@H]3C[C@H]1CN(CCc1ccccc1)[C@H]2[C@@H]3Cc1ccc(O)cc1` [IB-625], the IC50 lay in the range of 10 to 30 µM.

With `CC(C)CNC(=O)[C@]12NC[C@H]3C[C@H]1CN(Cc1ccc(F)cc1)[C@H]2[C@@H]3CC(C)C` [IB-630], the IC50 is less than 5 µM.

`CC(C)CNC(=O)[C@]12NC[C@H]3C[C@H]1CN(Cc1ccc(F)cc1)[C@H]2[C@@H]3Cc1ccc(O)cc1` [IB-631]: the IC50 is 10 to 30 µM.

Turning to `CC(C)CNC(=O)[C@]12NC[C@H]3C[C@H]1CN(CC(C)C)[C@H]2[C@@H]3CCc1ccccc1` [IB-633], the IC50 was less than 5 µM.

Consider `CC(C)CCN1C[C@@H]2C[C@@H]3CN[C@]2(C(=O)NCCC(N)=O)[C@@H]1[C@@H]3CCc1ccccc1` [IB-636], for which the IC50 was 10 to 30 µM.

As to `NC(=O)CCNC(=O)[C@]12NC[C@H]3C[C@H]1CN(CC1CCCCC1)[C@H]2[C@@H]3Cc1ccccc1` [IB-637], the IC50 was less than 5 µM.

Take `O=C(NCCO)[C@]12NC[C@H]3C[C@H]1CN(CCc1ccccc1)[C@H]2[C@@H]3Cc1ccccc1` [IB-640]: the IC50 was less than 5 µM.

For `CC(C)C[C@@H]1[C@H]2CN[C@@]3(C(=O)NCCO)[C@@H](C2)CN(CCc2ccccc2)[C@@H]13` [IB-641], the IC50 was 10 to 30 µM.

Take `O=C(NCc1ccc(F)cc1)[C@]12NC[C@H]3C[C@H]1CN(CCc1ccccc1)[C@H]2[C@@H]3Cc1ccc(O)cc1` [IB-642]: the IC50 is less than 5 µM.
